Assay results from patent US9034896B2, “N-(imidazolidin-2-ylidene)-heterocyclopenta[b]pyridine derivatives as modulators of alpha 2 adrenergic receptors” (Allergan, Inc., priority 2011, dated 2015).

How the values were obtained:
Type in all cases: cell-based
[1] = target: T1, Alpha 2C adrenergic receptor (Homo sapiens, UniProt P18825); experiment: RSAT (Receptor Selection and Amplification Technology) assay, alpha 2C; conditions: for Intrinsic Activity (efficacy) Alpha 2C: relative efficacy compared to a standard full agonist; for EC50: read-out: Intrinsic Activity EC50 Alpha 2C
T1 construct: expressed in transfected cells
T1 sequence (P18825 1-462): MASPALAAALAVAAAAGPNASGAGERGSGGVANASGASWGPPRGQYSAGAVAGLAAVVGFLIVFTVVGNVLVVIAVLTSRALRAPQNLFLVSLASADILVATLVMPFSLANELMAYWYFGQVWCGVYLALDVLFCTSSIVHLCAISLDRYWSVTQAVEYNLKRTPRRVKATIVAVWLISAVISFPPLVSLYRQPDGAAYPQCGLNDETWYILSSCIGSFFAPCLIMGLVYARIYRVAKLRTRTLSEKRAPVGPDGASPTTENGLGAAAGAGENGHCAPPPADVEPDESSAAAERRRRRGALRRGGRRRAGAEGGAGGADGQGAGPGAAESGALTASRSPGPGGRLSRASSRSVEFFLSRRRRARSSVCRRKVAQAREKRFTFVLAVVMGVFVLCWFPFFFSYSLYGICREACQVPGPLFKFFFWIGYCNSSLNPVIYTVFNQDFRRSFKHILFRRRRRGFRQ
Description: (§1) Cells expressing each of the alpha 2 adrenergic receptors alone were incubated with the various compounds and a receptor-mediated growth response was measured. The compound's activity is expressed as its relative efficacy compared to a standard full agonist (see Table 3).

[2] = target: T2, Alpha 2B adrenergic receptor (Homo sapiens, UniProt P18089); experiment: RSAT (Receptor Selection and Amplification Technology) assay, alpha 2B; conditions: for Intrinsic Activity EC50 Alpha 2B / EC50: cells expressing alpha 2B receptor alone, receptor-mediated growth response, NA = not active; for Intrinsic Activity (efficacy) Alpha 2B: relative efficacy compared to a standard full agonist; for EC50: read-out: Intrinsic Activity EC50 Alpha 2B
T2 construct: expressed in transfected cells
T2 sequence (P18089 1-450): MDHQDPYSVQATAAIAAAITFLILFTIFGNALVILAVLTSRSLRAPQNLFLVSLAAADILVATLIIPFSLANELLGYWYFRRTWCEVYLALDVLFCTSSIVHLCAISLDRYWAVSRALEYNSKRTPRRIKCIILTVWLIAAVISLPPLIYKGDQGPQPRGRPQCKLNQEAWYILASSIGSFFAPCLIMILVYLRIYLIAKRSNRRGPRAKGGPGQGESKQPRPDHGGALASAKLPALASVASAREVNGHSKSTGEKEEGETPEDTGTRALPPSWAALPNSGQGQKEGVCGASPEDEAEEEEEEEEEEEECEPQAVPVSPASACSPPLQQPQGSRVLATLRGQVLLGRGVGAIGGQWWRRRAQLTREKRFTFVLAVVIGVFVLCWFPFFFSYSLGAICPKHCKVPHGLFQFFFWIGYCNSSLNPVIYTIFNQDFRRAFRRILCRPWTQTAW
Description: as §1

[3] = target: T3, Alpha 2A adrenergic receptor (Homo sapiens, UniProt P08913); experiment: RSAT (Receptor Selection and Amplification Technology) assay, alpha 2A; conditions: for EC50: cells expressing alpha 2A receptor alone, receptor-mediated growth response, NA = not active, read-out: Intrinsic Activity EC50 Alpha 2A; for Intrinsic Activity (efficacy) Alpha 2A: relative efficacy compared to a standard full agonist
T3 construct: expressed in transfected cells
T3 sequence (P08913 1-465): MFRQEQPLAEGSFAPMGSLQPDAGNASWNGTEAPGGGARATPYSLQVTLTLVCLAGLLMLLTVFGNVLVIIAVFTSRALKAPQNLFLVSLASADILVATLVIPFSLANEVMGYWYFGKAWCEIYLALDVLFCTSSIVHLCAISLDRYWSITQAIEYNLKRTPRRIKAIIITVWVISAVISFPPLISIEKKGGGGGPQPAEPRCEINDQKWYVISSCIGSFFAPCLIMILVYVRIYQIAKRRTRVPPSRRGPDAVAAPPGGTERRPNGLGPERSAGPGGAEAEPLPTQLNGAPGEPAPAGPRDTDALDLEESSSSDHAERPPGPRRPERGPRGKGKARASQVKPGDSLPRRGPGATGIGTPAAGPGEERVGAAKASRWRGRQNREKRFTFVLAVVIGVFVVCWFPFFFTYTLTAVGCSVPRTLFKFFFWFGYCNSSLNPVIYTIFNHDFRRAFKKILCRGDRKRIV
Description: as §1

[4] = cells expressing alpha 2C receptor alone, receptor-mediated growth response, NA = not active

| SMILES | Intrinsic Activity EC50 Alpha 2C [1, 4] | Intrinsic Activity (efficacy) Alpha 2C [1] | Intrinsic Activity EC50 Alpha 2B [2] | Intrinsic Activity (efficacy) Alpha 2B [2] | EC50 [3] [nM] | Intrinsic Activity (efficacy) Alpha 2A [3] | EC50 [1, 4] [nM] | EC50 [2] [nM] |
| --- | --- | --- | --- | --- | --- | --- | --- | --- |
| Cc1c(N=C2NCCN2)cnc2[nH]ccc12 [Compound 1, N-(4,5-dihydro-1H-imidazol-2-yl)-4-methyl-1H-pyrrolo[2,3-b]pyridin-5-amine] | potent | (0.94) | potent | (0.82) | 8.2 | 0.85 | – | – |
| Clc1c(N=C2NCCN2)cnc2[nH]ccc12 [Compound 2, 4-Chloro-N-(imidazolidin-2-ylidene)-1H-pyrrolo[2,3-b]pyridin-5-amine] | – | 0.91 | – | 0.72 | 25.2 | 0.73 | 10.5 | 5.36 |
| Brc1c(N=C2NCCN2)cnc2[nH]ccc12 [Compound 3, 4-Bromo-N-(imidazolidin-2-ylidene)-1H-pyrrolo[2,3-b]pyridin-5-amine] | – | 0.84 | – | 0.17 | 62.2 | 0.16 | 31.2 | 32.6 |
| Cn1ccc2cc(N=C3NCCN3)cnc21 [Compound 4, N-(imidazolidin-2-ylidene)-1-methyl-1H-pyrrolo[2,3-b]pyridin-5-amine] | – | 0.93 | – | 0.57 | – | – | 31 | 114 |
| c1cc2cc(N=C3NCCN3)cnc2o1 [Compound 5, N-(imidazolidin-2-ylidene)furo[2,3-b]pyridin-5-amine] | – | 0.73 | – | – | – | – | 2110 | – |
| c1nc2cc(N=C3NCCN3)cnc2s1 [Compound 6, N-(4,5-dihydro-1H-imidazol-2-yl)thiazolo[5,4-b]pyridin-6-amine] | – | 0.97 | – | 0.46 | – | – | 10 | 267 |
| c1cc2cc(N=C3NCCN3)cnc2[nH]1 [Compound 7, N-(imidazolidin-2-ylidene)-1H-pyrrolo[2,3-b]pyridin-5-amine] | – | 0.94 | potent | (0.87) | 16.2 | 0.89 | 7.3 | – |
| c1nc2cc(N=C3NCCN3)cnc2[nH]1 [Compound 8, N-(imidazolidin-2-ylidene)-3H-imidazo[4,5-b]pyridin-6-amine] | – | 0.87 | – | 0.61 | – | – | 448 | 722 |
